# Results: patent US20110144014A1, “CYTOKINE RECEPTOR MODULATORS AND USES THEREOF” (CENTRE HOSPITALIER UNIVERSITAIRE SAINTE-JUSTINE, priority 2005, published 2011)
# Where a SMILES comes first, the peptide text is derived from it. [ ]: non-standard residue; d: D form.
# Tests used:
# [1] = tested on: HEK293 cells; assay: Binding of I125-API-101.10 in HEK293 cells not containing IL-1R
# From the text: Thymocytes freshly isolated from rat thymus were resuspended at a concentration of 10^7 cell/ml in PBS (phosphate buffered saline) buffer pH 8.0 (reaction buffer) and washed three times with ice-cold reaction buffer. The reaction mixture for each sample contained: 10^6 cells and 10^7 cpm of 125API-101.10. One sample also contained […] of cold API-101.10 peptide. In the negative control HEK-293 cells containing a negligible amount of IL-1R were used. Each sample volume was then raised to 250 μl with reaction buffer. Samples were incubated at room temperature and/or 37° for 45 minutes to allow peptide binding. The non-permeable cross-linker BS3 (Bis(sulfosuccinimidyl)suberate) was then added to a final concentration of 2.5 mM and samples were incubated at 4° C. for 30 minutes to minimize active internalization of BS3 (11.4 Å) (Pierce) (Partis, J. Prot. Chem. 293:263-277, 1983; Cox et al., J. Immunol. 145:1719-1726, 1990; and Knoller et al., J. Biol. Chem. 266:2795-2804, 1991). The reaction was quenched with 20 mM TRIS pH 7.5 for 15 minutes at room temperature. Cells were centrifuged at 4000 rpm for 10 minutes, lysed for 30 minutes on ice with 150 μl of RIPA buffer (50 mM Tris HCl pH7.4; 150 mM NaCl; 1 mM EDTA; 2 mM Na3VO4; 1 mM NaF; 1% NP-40; 0.25% Nadeoxycholate). […] Radioactivity was determined is every cell lysate with a Packard CobraII autogamma counter.
# [2] = tested on: IL-1R/IL-1RacP; assay: IL-1β-induced cGMP production in brain tissues ex vivo
# Procedure: For these newly derived peptides, ex vivo experiments were then conducted. Brain tissues were incubated with the peptides and IL-1β and cGMP was measured with a commercial kit (Amersham Bioscience, cGMP assay biotrack™ system). API-101.10 already inhibited 85% of IL-1β-induced cGMP production (10^−6M) and API-101.103 and 101.106 inhibited more than 90% of cGMP production. Thus, removal of the negative charge of the glutamate and removal of the threonine can improve the potency of the antagonist.
# [3] = biological target: T1, IL-1R/IL-1RacP (Sus scrofa, UniProt A0A5G2QSI4); assay: Vasomotricity of piglet pial vessels (IL-1β induced vasodilation); details: vasodilation induced by IL-1
# T1 construct: Slices of brain exposing the pial vessels; from tissue; host or cells: piglet brain slices, pial vessels
# T1 sequence (A0A5G2QSI4 21-572): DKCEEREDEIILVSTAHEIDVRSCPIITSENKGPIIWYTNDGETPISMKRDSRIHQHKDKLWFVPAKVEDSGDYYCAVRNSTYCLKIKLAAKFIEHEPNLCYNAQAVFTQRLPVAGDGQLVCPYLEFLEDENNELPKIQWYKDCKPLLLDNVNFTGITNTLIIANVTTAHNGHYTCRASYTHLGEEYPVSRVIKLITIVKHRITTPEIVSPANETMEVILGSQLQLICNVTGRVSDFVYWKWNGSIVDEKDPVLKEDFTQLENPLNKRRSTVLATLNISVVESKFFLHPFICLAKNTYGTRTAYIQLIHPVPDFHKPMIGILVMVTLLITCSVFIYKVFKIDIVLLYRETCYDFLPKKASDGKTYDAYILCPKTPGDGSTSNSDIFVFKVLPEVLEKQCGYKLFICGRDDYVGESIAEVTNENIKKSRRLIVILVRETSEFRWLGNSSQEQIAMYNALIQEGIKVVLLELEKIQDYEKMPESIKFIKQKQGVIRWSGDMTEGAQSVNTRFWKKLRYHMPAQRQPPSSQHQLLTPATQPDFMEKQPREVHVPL
# Procedure: In another experiment, vasomotricity variation of piglets pial vessels was studied to further evaluate the particular effect of cytokine receptor subfragments on the vasodilatator effect of IL-1β. Brains were dissected from Yorkshire piglets. Slices of brain exposing the pial vessels were pinned to a wax base of a 20 ml bath containing Krebs buffer (pH 7.4) equilibrated with 95% O2-5% CO2 and maintained at 37° C. Microvessels were visualized and recorded using a video camera mounted on a dissecting microscope. Vascular diameter was measured using a digital image analyzer and the images were recorded before and after topical application of constricting agent U46619 at 10^−7M. After stabilization of the vasomotricity, IL-1 ? was added until stabilization of vasodilatation. Peptides were then injected at different concentrations from 10^−10 to 10^−5M. Reversal of vasodilatation (i.e., vasoconstriction) was visualized and measured as described above. IL-1 ? induced vasodilatation in the microvasculature of the piglet brain was observed. Examples of the inhibitory activity of cytokine subfragment peptides are given below.
structure (smiles),measurement,setting,value
"CC(C)C[C@@H](NC(=O)[C@@H](CCC(=O)O)NC(=O)[C@H](NC(=O)[C@H](NC(=O)[C@@H](Cc1ccc(O)cc1)NC(=O)[C@H](N)CCCNC(=N)N)[C@H](C)O)C(C)C)C(=O)N[C@H](C)C(N)=O [API-101.10, RYTVELA] (H-[dR][dY][dT][dV][dE][dL][dA]-NH2; N-terminus and C-terminus assumed)",binding in cells not containing IL-1R,[1],does not occur
same,inhibition of IL-1β-induced cGMP production,"[2]; brain tissues, 10^−6M",85%
same,activity compared with Kineret,[2]; data not shown,superior
same,potency relative to API-101,[3],100 fold
